Results on one molecule are retold here after patent US7910588B2, “5-HT7 receptor antagonists” (Eli Lilly and Company, priority 2007, dated 2011).

One assay concerns the target T1, 5-HT7 receptor (Homo sapiens, UniProt P34969).
T1 construct: expressed in transfected cells
Briefly: 5-HT7 receptor affinity: [3H]5-HT radioligand binding assay. The note with it: membranes of AV-12 cells, 1 nM [3H]5-HT. The protocol:
Membranes for affinity and antagonist activity assays are prepared essentially as follows. AV-12 cells, stably expressing the 5-HT7 receptor, are grown as a monolayer in 5×T-150 flasks in DMEM/F12 (3:1) 5% FBS, 20 mM HEPES, […] geneticin, 50 mg/mL tobramycin. After growing to 90% confluence the media is removed and replaced with Hybritech media containing 2% horse serum, […] dextran sulfate, 1 mg/mL nucellin, 1 mg/mL human transferrin (partially iron saturated), 50 mg/mL tobramycin, 20 mM HEPES, […] geneticin, 0.04% pluronic F68. […]
To prepare membranes, the above pellets are resuspended in ice-cold Tris buffer (20 mM Tris HCl, pH 7.4 at 23° C., 5 mM EDTA) and homogenized with a Wheaton tissue grinder. […] Protein concentrations are determined by the method of Bradford. […]

Another assay deals with T2, 5-HT2B (Homo sapiens, UniProt P41595).
T2 construct: expressed in transfected cells
T2 sequence (P41595 whole entry, species assumed): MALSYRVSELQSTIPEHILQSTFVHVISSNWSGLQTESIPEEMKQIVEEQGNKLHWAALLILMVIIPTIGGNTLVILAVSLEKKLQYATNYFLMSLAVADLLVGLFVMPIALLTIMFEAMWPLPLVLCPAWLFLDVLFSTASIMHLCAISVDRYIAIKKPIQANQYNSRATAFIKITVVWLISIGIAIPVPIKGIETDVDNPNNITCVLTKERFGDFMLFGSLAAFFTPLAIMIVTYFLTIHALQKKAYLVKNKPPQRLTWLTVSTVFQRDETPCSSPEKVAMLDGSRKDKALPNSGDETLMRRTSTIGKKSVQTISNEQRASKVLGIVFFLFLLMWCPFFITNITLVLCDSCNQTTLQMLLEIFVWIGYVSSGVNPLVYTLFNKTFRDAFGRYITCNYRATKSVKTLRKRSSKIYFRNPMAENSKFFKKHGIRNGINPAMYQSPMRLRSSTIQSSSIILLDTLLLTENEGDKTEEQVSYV
Briefly: Radioligand binding assay, 5-HT2B. The procedure: (§1) [^3H] […] The reactions are incubated at room temperature for 3 hr. and then counted in a Trilux Microbeta™ scintillation counter to detect receptor-bound radioligand. Binding data are analyzed by computer-assisted 4 parameter fit analysis (ID Business Solutions Ltd, Guildford, Surrey, UK). […]
(§2) Affinity for other serotonin receptor subtypes as well as for alpha 1 & 2 adrenergic receptors can readily be determined by modification of the above described radioligand receptor binding assay using membranes derived from cells stably expressing the desired receptor subtype including the 5-HT1A, 5-HT1B, and 5-HT1D subtypes, as well as the 5-HT2A, 5-HT2B, 5-HT2C, 5-HT4, 5-HT7, and 5-HT6 receptor subtypes. […]

The next assay deals with T3, 5-HT5 (Homo sapiens, UniProt P47898).
T3 construct: expressed in transfected cells
T3 sequence (P47898 whole entry): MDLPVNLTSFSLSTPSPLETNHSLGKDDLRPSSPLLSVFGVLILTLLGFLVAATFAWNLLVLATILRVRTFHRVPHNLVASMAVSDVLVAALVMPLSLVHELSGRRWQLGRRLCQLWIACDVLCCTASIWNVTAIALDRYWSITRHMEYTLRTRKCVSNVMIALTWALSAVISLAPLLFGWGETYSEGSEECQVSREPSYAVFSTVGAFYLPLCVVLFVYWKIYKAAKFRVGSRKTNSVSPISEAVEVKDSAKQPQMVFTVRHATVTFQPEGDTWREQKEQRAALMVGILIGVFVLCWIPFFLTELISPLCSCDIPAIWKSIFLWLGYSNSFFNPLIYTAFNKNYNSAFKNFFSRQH
The assay is described as follows: Radioligand binding assay, 5-HT5. The protocol:
as §1, §2

Several values for one entry are separate records, joined by “and”; a condition that tells them apart may be missing. Identical values can stand only once.

T1 sequence (P34969 whole entry): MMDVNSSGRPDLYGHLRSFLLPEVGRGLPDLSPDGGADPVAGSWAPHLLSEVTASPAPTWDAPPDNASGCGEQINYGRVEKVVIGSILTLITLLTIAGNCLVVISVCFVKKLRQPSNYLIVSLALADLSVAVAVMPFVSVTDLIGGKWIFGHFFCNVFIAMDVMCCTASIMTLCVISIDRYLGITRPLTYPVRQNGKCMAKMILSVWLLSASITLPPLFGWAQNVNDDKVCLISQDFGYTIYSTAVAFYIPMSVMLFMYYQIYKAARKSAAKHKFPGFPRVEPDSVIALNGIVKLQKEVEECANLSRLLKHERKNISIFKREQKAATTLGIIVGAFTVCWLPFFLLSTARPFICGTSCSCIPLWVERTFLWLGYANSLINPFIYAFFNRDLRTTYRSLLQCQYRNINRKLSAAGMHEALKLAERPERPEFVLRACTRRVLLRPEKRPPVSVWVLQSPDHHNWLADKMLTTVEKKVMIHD

Take `CCn1ncc(CN2CCN(c3cccnc3N3CCC(O)CC3)CC2)c1C.Cl` [Example 1, 3′-[4-(1-Ethyl-5-methyl-1H-pyrazol-4-ylmethyl)-piperazin-1-yl]-3,4,5,6-tetrahydro-2H-[1,2]bipyridinyl-4-ol hydrochloride]: the Ki was ~16.2 nM and 16.2 nM on 5-HT7 receptor; over 6810 nM on 5-HT2B; 4550 nM at 5-HT5.
